Test results reported in patent US11597702B2, “Substituted pyrazoles FFA4/GPR120 receptor agonists” (AXXAM S.P.A., priority 2018, dated 2023).

Target: T1, GPR120 (Homo sapiens, UniProt Q5NUL3)
T1 construct: expressed in transfected cells; host or cells: CHO mitoPhotinaGPR120 cells
T1 sequence (Q5NUL3 1-361): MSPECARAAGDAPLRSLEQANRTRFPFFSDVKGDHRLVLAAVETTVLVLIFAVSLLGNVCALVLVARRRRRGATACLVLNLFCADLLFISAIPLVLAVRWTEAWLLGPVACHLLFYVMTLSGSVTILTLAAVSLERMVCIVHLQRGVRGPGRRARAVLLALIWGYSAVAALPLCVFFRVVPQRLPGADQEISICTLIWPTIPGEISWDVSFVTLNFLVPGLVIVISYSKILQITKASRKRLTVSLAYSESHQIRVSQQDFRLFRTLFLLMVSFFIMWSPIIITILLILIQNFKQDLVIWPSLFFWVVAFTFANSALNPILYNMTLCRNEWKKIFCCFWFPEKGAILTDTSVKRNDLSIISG
Assay: GPR120 agonism in CHO mitoPhotinaGPR120 cell based assay with fluorescent (Fluo-8 calcium, FLIPRTetra) readout, Agonist Mode, dose response
Conditions: CHO mitoPhotinaGPR120 cells, Fluo-8 No Wash Ca2+ dye, dose response in quadruplicate, 0.0033% fatty acid free BSA
Description: Compounds of the invention were tested for GPR120 agonism in a CHO mitoPhotinaGPR120 cell based assay with fluorescent readout in Agonist Mode in dose response in quadruplicate with intra-plate modality.
Twenty (20) h after seeding, growth medium was manually removed and cells were starved in the presence of 25 μL/w of Standard Tyrode's Buffer. After 3 h, cells were loaded with 20 μL/w of 0.5× Fluo-8 No Wash (AAT Bioquest, Inc.) Ca2+ sensitive dye prepared in Standard Tyrode's Buffer. Cells were incubated for 1 h at room temperature in the dark. Ten (10) μL/w 3× of controls and compounds were diluted in Standard Tyrode's Buffer+0.01% fatty acid free BSA (final concentration=0.0033%) and injected at the FLIPRTetra®, recording the kinetic calcium traces for 3 minutes. Standard Tyrode's buffer composition: 5 mM KCl, 130 mM NaCl, 2 mM CaCl2), 5 mM NaHCO3, 1 mM MgCl2, 20 mM HEPES, pH7.4.

| Compound | EC50 [µM] |
| --- | --- |
| Cc1nn(-c2ccccc2)c(CSc2ccc(CCO)cc2)c1C#N [Example 59, 5-[[4-(2-hydroxyethyl)phenyl]sulfanylmethyl]-3-methyl-1-phenyl-pyrazole-4-carbonitrile] | 2.63 |
| Cc1nn(-c2ccccc2)c(COc2ccc3ccncc3c2)c1C#N [Example 62, 5-(7-isoquinolyloxymethyl)-3-methyl-1-phenyl-pyrazole-4-carbonitrile] | 2.6 |
| Cc1nn(-c2ccccc2)c(COc2cccc3cccnc23)c1C#N [Example 63, 3-methyl-1-phenyl-5-(8-quinolyloxymethyl)pyrazole-4-carbonitrile] | 16.4 |
| Cc1nn(-c2ccccc2)c(COc2cccnc2C#N)c1C#N [Example 64, 3-[(4-cyano-5-methyl-2-phenyl-pyrazol-3-yl)methoxy]pyridine-2-carbonitrile] | 19.1 |
| Cc1nn(-c2ccccc2)c(COc2cccnc2F)c1C#N [Example 65, 5-[(2-fluoro-3-pyridyl)oxymethyl]-3-methyl-1-phenyl-pyrazole-4-carbonitrile] | 3.56 |
| Cc1ccncc1OCc1c(C#N)c(C)nn1-c1ccccc1 [Example 68, 3-methyl-5-[(4-methyl-3-pyridyl)oxymethyl]-1-phenyl-pyrazole-4-carbonitrile] | 8.32 |
| Cc1ccc(OCc2c(C#N)c(C)nn2-c2ccccc2)cn1 [Example 69, 3-methyl-5-[(6-methyl-3-pyridyl)oxymethyl]-1-phenyl-pyrazole-4-carbonitrile] | 9.82 |
| Cc1ccnc(C)c1OCc1c(C#N)c(C)nn1-c1ccccc1 [Example 70, 5-[(2,4-dimethyl-3-pyridyl)oxymethyl]-3-methyl-1-phenyl-pyrazole-4-carbonitrile] | 2.3 |
| Cc1nn(-c2ccccc2)c(COc2ccc(F)nc2F)c1C#N [Example 71, 5-[(2,6-difluoro-3-pyridyl)oxymethyl]-3-methyl-1-phenyl-pyrazole-4-carbonitrile] | 5.69 |
| Cc1nn(-c2cccc(Cl)c2)c(COc2ccc(CCO)cc2)c1C#N [Example 75, 1-(3-chlorophenyl)-5-[[4-(2-hydroxyethyl)phenoxy]methyl]-3-methyl-pyrazole-4-carbonitrile] | 4.61 |
| Cc1nn(-c2cccc(C(F)(F)F)c2)c(COc2ccc(CCO)cc2)c1C#N [Example 77, 5-[[4-(2-hydroxyethyl)phenoxy]methyl]-3-methyl-1-[3-(trifluoromethyl)phenyl]pyrazole-4-carbonitrile] | 9.03 |
| Cc1nn(-c2ccccc2F)c(COc2ccc(CCO)cc2)c1C#N [Example 82, 1-(2-fluorophenyl)-5-[[4-(2-hydroxyethyl)phenoxy]methyl]-3-methyl-pyrazole-4-carbonitrile] | 3.41 |
| Cc1nn(-c2ccc(F)cc2)c(COc2ccccc2)c1C#N [Example 83, 1-(4-fluorophenyl)-3-methyl-5-(phenoxymethyl)pyrazole-4-carbonitrile] | 2.22 |
| Cc1nn(-c2ccc(F)cc2)c(COc2cccc(F)c2)c1C#N [Example 85, 5-[(3-fluorophenoxy)methyl]-1-(4-fluorophenyl)-3-methyl-pyrazole-4-carbonitrile] | 4.55 |
| Cc1nn(Cc2ccccc2)c(COc2ccc(CCO)cc2)c1C#N [Example 88, 1-benzyl-5-[[4-(2-hydroxyethyl)phenoxy]methyl]-3-methyl-pyrazole-4-carbonitrile] | 11.2 |
| COc1ccc(Cn2nc(C)c(C#N)c2COc2ccc(CCO)cc2)cc1 [Example 91, 5-[[4-(2-hydroxyethyl)phenoxy]methyl]-1-[(4-methoxyphenyl)methyl]-3-methyl-pyrazole-4-carbonitrile] | 16.5 |
| Cc1nn(-c2ccccc2)c(C(C)Oc2ccc(CCO)cc2)c1C#N (centres unmarked) [Example 92, 5-[1-[4-(2-hydroxyethyl)phenoxy]ethyl]-3-methyl-1-phenyl-pyrazole-4-carbonitrile] | 3.66 |
| Cc1nn(-c2ccccc2)c(COCc2ccc(C#N)cc2)c1C#N [Example 97, 5-[(4-cyanophenyl)methoxymethyl]-3-methyl-1-phenyl-pyrazole-4-carbonitrile] | 2.8 |
| Cc1nn(-c2ccc(F)cc2)c(COCc2ccccc2)c1C#N [Example 98, 5-(benzyloxymethyl)-1-(4-fluorophenyl)-3-methyl-pyrazole-4-carbonitrile] | 9.9 |
| Cc1nn(-c2cccnc2)c(COc2ccc(CCO)cc2)c1C#N [Example 103, 5-[[4-(2-hydroxyethyl)phenoxy]methyl]-3-methyl-1-(3-pyridyl)pyrazole-4-carbonitrile] | 9.22 |

These reach a lower EC50. Values come first.

| EC50 [µM] | Compound |
| --- | --- |
| 1.98 | Cc1cccc(-n2nc(C)c(C#N)c2COc2ccc(CCO)cc2)c1 [Example 73, 5-[[4-(2-hydroxyethyl)phenoxy]methyl]-3-methyl-1-(m-tolyl)pyrazole-4-carbonitrile] |
| 1.64 | COc1cccc(-n2nc(C)c(C#N)c2COc2ccc(CCO)cc2)c1 [Example 79, 5-[[4-(2-hydroxyethyl)phenoxy]methyl]-1-(3-methoxyphenyl)-3-methyl-pyrazole-4-carbonitrile] |
| 1.58 | Cc1ccccc1OCc1c(C#N)c(C)nn1-c1ccc(F)cc1 [Example 86, 1-(4-fluorophenyl)-3-methyl-5-[(2-methylphenoxy)methyl]pyrazole-4-carbonitrile] |
| 1.54 | Cc1nn(-c2ccc(F)cc2)c(COc2ccc(CCO)cc2)c1C#N [Example 84, 1-(4-fluorophenyl)-5-[[4-(2-hydroxyethyl)phenoxy]methyl]-3-methyl-pyrazole-4-carbonitrile] |
| 1.48 | Cc1nn(-c2cccc(F)c2)c(COc2ccc(CCO)cc2)c1C#N [Example 101, 1-(3-fluorophenyl)-5-[[4-(2-hydroxyethyl)phenoxy]methyl]-3-methyl-pyrazole-4-carbonitrile] |
| 1.35 | Cc1nn(-c2ccccc2)c(C(F)(F)Oc2ccc(CCO)cc2)c1C#N [Example 94, 5-[difluoro-[4-(2-hydroxyethyl)phenoxy]methyl]-3-methyl-1-phenyl-pyrazole-4-carbonitrile] |
| 1.02 | Cc1nn(-c2ccccc2)c(COc2ccc3n[nH]cc3c2)c1C#N [Example 61, 5-(2~{H}-indazol-5-yloxymethyl)-3-methyl-1-phenyl-pyrazole-4-carbonitrile] |
| 0.99 | Cc1nn(Cc2ccccc2)c(COc2ccc(CCCO)cc2)c1C#N [Example 89, 1-benzyl-5-[[4-(3-hydroxypropyl)phenoxy]methyl]-3-methyl-pyrazole-4-carbonitrile] |
| 0.83 | Cc1nn(-c2ccccc2)c(C(F)(F)Oc2ccc(CCCO)cc2)c1C#N [Example 95, 5-[difluoro-[4-(3-hydroxypropyl)phenoxy]methyl]-3-methyl-1-phenyl-pyrazole-4-carbonitrile] |
| 0.76 | Cc1nn(-c2ccc(Cl)cc2)c(COc2ccc(CCO)cc2)c1C#N [Example 76, 1-(4-chlorophenyl)-5-[[4-(2-hydroxyethyl)phenoxy]methyl]-3-methyl-pyrazole-4-carbonitrile] |
| 0.64 | COc1ccc(-n2nc(C)c(C#N)c2COc2ccc(CCO)cc2)cc1 [Example 80, 5-[[4-(2-hydroxyethyl)phenoxy]methyl]-1-(4-methoxyphenyl)-3-methyl-pyrazole-4-carbonitrile] |
| 0.53 | Cc1nn(-c2ccccn2)c(COc2ccc(CCO)cc2)c1C#N [Example 102, 5-[[4-(2-hydroxyethyl)phenoxy]methyl]-3-methyl-1-(2-pyridyl)pyrazole-4-carbonitrile] |
| 0.52 | Cc1nn(-c2ccccc2)c(C(F)(F)Oc2c(F)cc(CCCO)cc2F)c1C#N [Example 96, 5-[[2,6-difluoro-4-(3-hydroxypropyl)phenoxy]-difluoro-methyl]-3-methyl-1-phenyl-pyrazole-4-carbonitrile] |
| 0.49 | Cc1ccc(-n2nc(C)c(C#N)c2COc2ccc(CCO)cc2)cc1 [Example 74, 5-[[4-(2-hydroxyethyl)phenoxy]methyl]-3-methyl-1-(p-tolyl)pyrazole-4-carbonitrile] |
| 0.38 | CCc1ccc(-n2nc(C)c(C#N)c2COc2ccc(CCO)cc2)cc1 [Example 78, 1-(4-ethylphenyl)-5-[[4-(2-hydroxyethyl)phenoxy]methyl]-3-methyl-pyrazole-4-carbonitrile] |
| 0.33 | Cc1nn(-c2ccccc2)c(C(C)Oc2c(F)cc(CCCO)cc2F)c1C#N (centres unmarked) [Example 93, 5-[1-[2,6-difluoro-4-(3-hydroxypropyl)phenoxy]ethyl]-3-methyl-1-phenyl-pyrazole-4-carbonitrile] |
| 0.31 | Cc1nn(Cc2ccccc2)c(COc2c(F)cc(CCCO)cc2F)c1C#N [Example 90, 1-benzyl-5-[[2,6-difluoro-4-(3-hydroxypropyl)phenoxy]methyl]-3-methyl-pyrazole-4-carbonitrile] |
| 0.18 | Cc1nn(-c2ccc(F)cc2)c(COc2ccc(CCCO)cc2)c1C#N [Example 87, 1-(4-fluorophenyl)-5-[[4-(3-hydroxypropyl)phenoxy]methyl]-3-methyl-pyrazole-4-carbonitrile] |
